Test system: HeLa
Assay: Cytotoxicity against human HeLa cells by WST-8 assay
Format: functional, cell-based

Row | SMILES | IC50
1 | CC1=C[C@@H]2[C@@H](CC1)[C@@](C)(N=C=S)CC[C@H]2C(C)C (relative stereo) | 73.7 µM
2 | [C-]#[N+][C@@]12CC[C@H](C)C3=C(C=C(C)C)C[C@H](C)[C@@H](CC[C@@H]1C)[C@@H]32 (relative stereo) | 11.2 µM
3 | [C-]#[N+][C@@]1(C)CC[C@H]2[C@@H]3[C@@H](C(C)=CC[C@@H]31)[C@@H](C=C(C)C)C[C@@H]2C (relative stereo) | 20 µM
4 | C[C@H]1CC[C@]23[C@H]1[C@H]2[C@@H](C(C)(C)N=C=S)CC[C@@H]3C (relative stereo) | 57.8 µM
5 | C[C@H]1C[C@H]2CC(C)(C)CC3=CC[C@@]4(N=C=O)[C@@H]([C@@H]1CC[C@@H]4C)[C@@H]32 | 38.3 µM
6 | C[C@H]1C[C@H]2CC(C)(C)CC3=CC[C@@]4(N=C=S)[C@@H]([C@@H]1CC[C@@H]4C)[C@@H]32 | 88.7 µM

Reference: ChEMBL document CHEMBL1151205, “Terpene isocyanides, isocyanates, and isothiocyanates from the Okinawan marine sponge Stylissa sp” (J Nat Prod, 2004)
